What was measured:
QPCTL [1] = target: T1, QPCTL (Homo sapiens (Human), UniProt Q9NXS2); experiment: QPCTL Enzymatic Activity Assay (coupled-enzyme fluorescent assay, H-Gln-AMC substrate); type: biochemical; settings: recombinant truncated human QPCTL 10-12 nM, 10 μM H-Gln-AMC; read-out: QPCTL Inhibition IC50
Experimental: Protein expression was induced when the bacterial culture OD600 was approximately 0.7 using 1 mM IPTG and the cells incubated at 20° C. for approximately 16 hours. The QPCTL was purified using nickel column purification, digested by TEV, followed by a second nickel column purification. The protein was further purified by size-exclusion chromatography using a Superdex™ 75 column. The final protein was concentrated using ultrafiltration tubes at a molecular weight cutoff of 10 kilodaltons and stored frozen in protein buffer (25 mM Tris pH 8.3, 150 mM NaCl).
QPCTL activity was measured in a coupled-enzyme assay using the QPCTL substrate, glutamine-7-amido-4-methylcoumarin (H-Gln-AMC, Bachem), which is converted to pyroglutamyl-AMC by QPCTL. Pyroglutamyl-AMC is then converted to the fluorescent molecule, AMC, by incubation with the human enzyme pyroglutamyl peptidase-1. […] Final concentrations of DMSO and test compounds were 2% and 30-100 μM, respectively. Following the incubation, H-Gln-AMC substrate was diluted in assay buffer and added to each well for a final concentration of 10 μM. The reaction was incubated for 60 min at 37° C., before stopping it by boiling at 100° C. for 5 minutes and cooling the plate at 4° C. for 3 minutes. […] Following incubation, the fluorescence was measured with a plate reader using excitation at 380 nm and emission at 460 nm. […] Concentration-response-curves and IC50 values (Table 17) were generated using curve fit software.
Target sequence in this assay (Q9NXS2 53-382): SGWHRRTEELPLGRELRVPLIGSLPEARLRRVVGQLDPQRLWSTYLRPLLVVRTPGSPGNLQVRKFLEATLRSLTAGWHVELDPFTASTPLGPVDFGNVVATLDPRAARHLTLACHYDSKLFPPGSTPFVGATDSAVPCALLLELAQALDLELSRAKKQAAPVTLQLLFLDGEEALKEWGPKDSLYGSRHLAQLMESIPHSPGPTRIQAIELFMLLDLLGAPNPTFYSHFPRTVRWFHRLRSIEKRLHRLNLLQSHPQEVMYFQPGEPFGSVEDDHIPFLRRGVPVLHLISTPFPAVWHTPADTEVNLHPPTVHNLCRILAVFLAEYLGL

QPCT (rhQPCT) = QPCT (rhQPCT) (Homo sapiens (Human), UniProt Q16769); experiment: QPCT Enzymatic Activity Assay (coupled-enzyme fluorescent assay, H-Gln-AMC substrate); type: biochemical; settings: rhQPCT 10-12 nM, 10 μM H-Gln-AMC; read-out: QPCT Inhibition IC50
Sequence of QPCT (rhQPCT) (Q16769 29-361): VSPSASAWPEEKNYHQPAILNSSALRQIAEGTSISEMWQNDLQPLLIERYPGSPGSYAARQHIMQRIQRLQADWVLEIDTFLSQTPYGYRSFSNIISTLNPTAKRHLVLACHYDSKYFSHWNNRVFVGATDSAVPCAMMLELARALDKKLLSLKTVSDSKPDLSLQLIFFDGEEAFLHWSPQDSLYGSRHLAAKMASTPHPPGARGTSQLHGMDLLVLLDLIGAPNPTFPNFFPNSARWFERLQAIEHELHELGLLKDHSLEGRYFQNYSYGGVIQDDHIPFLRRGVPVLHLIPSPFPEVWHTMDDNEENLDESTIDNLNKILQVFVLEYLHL
Experimental: QPCT activity was measured in a coupled-enzyme assay using the QPCT substrate, glutamine-7-amido-4-methylcoumarin (H-Gln-AMC, Bachem), which is converted to pyroglutamyl-AMC by QPCT. Pyroglutamyl-AMC is then converted to the fluorescent molecule, AMC, by incubation with the human enzyme pyroglutamyl peptidase-1 (PGPEP-1). […] Following the incubation, H-Gln-AMC substrate was diluted in assay buffer and added to each well for a final concentration of 10 μM. The reaction was incubated for 60 min at 37° C., before stopping it by boiling at 100° C. for 5 minutes and cooling the plate at 4° C. for 3 minutes. […] Following incubation, the fluorescence was measured with a plate reader using excitation at 380 nm and emission at 460 nm. […] Concentration-response-curves and IC50 values (Table 17) were generated using Collaborative Drug Discovery software.

QPCTL [2] = target: T1, QPCTL; experiment: Inhibition of Cellular QPCTL Activity - Imaging Assay, CC2C6 anti-CD47 staining of DLD-1 cells; type: cell-based; settings: 72 hours, CC2C6 anti-CD47 high-content imaging
Experimental: Inhibition of Cellular QPCTL Activity—Imaging Assay
The cells were incubated for 72 hours at 37° C. and 5% CO2. […] After primary antibody staining, the cells were fixed with 4% paraformaldehyde in the incubation buffer for 15 minutes at room temperature. […] Cells were analyzed on a ImageXpress Pico Automated Cell Imaging System (Molecular Devices) using 10× objective (3×3 fields).
Target sequence in this assay (Q9NXS2 whole entry, the tested form may be a part): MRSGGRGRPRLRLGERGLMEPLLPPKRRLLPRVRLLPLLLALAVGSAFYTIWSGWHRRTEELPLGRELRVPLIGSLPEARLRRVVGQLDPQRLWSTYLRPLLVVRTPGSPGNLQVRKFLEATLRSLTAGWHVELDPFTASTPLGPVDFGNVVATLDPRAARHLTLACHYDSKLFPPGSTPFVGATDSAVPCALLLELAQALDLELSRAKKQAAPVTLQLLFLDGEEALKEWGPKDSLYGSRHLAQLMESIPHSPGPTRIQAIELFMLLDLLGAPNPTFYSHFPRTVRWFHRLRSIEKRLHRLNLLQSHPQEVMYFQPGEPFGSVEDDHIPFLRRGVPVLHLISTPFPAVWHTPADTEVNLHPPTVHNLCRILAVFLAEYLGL

| Compound | IC50 (QPCTL [1]) | IC50 (QPCT (rhQPCT)) | IC50 (QPCTL [2]) |
| --- | --- | --- | --- |
| Cn1cnnc1C1CCN(c2c(-c3ccc(F)nc3)ccc(OC3CCOC3)c2C#N)CC1 (single isomer, unassigned) [Example 88, 3-(6-fluoropyridin-3-yl)-2-(4-(4-methyl-4H-1,2,4-triazol-3-yl)piperidin-1-yl)-6-((tetrahydrofuran-3-yl)oxy)benzonitrile] | < 100 nM | < 100 nM | < 100 nM |
| CN1CCC(Oc2ccc(-c3ccc(F)nc3)c(N3CCC(c4nncn4C)CC3)c2C#N)C1 (single isomer, unassigned) [Example 90, 3-(6-fluoropyridin-3-yl)-2-(4-(4-methyl-4H-1,2,4-triazol-3-yl)piperidin-1-yl)-6-((1-methylpyrrolidin-3-yl)oxy)benzonitrile] | < 100 nM | < 100 nM | < 100 nM |
| CN1CCC(Oc2ccc(-c3ccc(F)nc3)c(N3CCC(c4nncn4C)CC3)c2C#N)C1 (single isomer, unassigned) [Example 91, 3-(6-fluoropyridin-3-yl)-2-(4-(4-methyl-4H-1,2,4-triazol-3-yl)piperidin-1-yl)-6-((1-methylpyrrolidin-3-yl)oxy)benzonitrile] | < 100 nM | < 100 nM | 100 to 1000 nM |
| Cn1cnnc1C1CCN(c2c(-c3ccc(F)nc3)ccc(-c3cnn(C4CCNCC4)c3)c2C#N)CC1 [Example 42, 3-(6-fluoropyridin-3-yl)-2-(4-(4-methyl-4H-1,2,4-triazol-3-yl)piperidin-1-yl)-6-(1-(piperidin-4-yl)-1H-pyrazol-4-yl)benzonitrile] | < 100 nM | < 100 nM | 100 to 1000 nM |
| Cn1ccc(-c2ccc(-c3ccc(F)nc3)c(N3CCC(c4nncn4C)CC3)c2C#N)n1 [Example 43, 3-(6-fluoropyridin-3-yl)-6-(1-methyl-1H-pyrazol-3-yl)-2-(4-(4-methyl-4H-1,2,4-triazol-3-yl)piperidin-1-yl)benzonitrile] | < 100 nM | < 100 nM | < 100 nM |
| Cn1cnnc1C1CCN(c2c(-c3ccc(F)nc3)ccc(-c3ccnc(N)c3)c2C#N)CC1 [Example 44, 6-(2-aminopyridin-4-yl)-3-(6-fluoropyridin-3-yl)-2-(4-(4-methyl-4H-1,2,4-triazol-3-yl)piperidin-1-yl)benzonitrile] | < 100 nM | < 100 nM | < 100 nM |
| Cn1cnnc1C1CCN(c2c(-c3ccc(F)nc3)ccc(-c3cc[nH]n3)c2C#N)CC1 [Example 45, 3-(6-fluoropyridin-3-yl)-2-(4-(4-methyl-4H-1,2,4-triazol-3-yl)piperidin-1-yl)-6-(1H-pyrazol-3-yl)benzonitrile] | < 100 nM | < 100 nM | < 100 nM |
| Cc1cc(-c2cccc(C#N)c2N2CCC(c3nncn3C)CC2)cnn1 [Example 46, 2-(4-(4-methyl-4H-1,2,4-triazol-3-yl)piperidin-1-yl)-3-(6-methylpyridazin-4-yl)benzonitrile] | < 100 nM | < 100 nM | 100 to 1000 nM |
| Cc1cc(-c2cccc(C#N)c2N2CCC(c3nncn3C)CC2)cnc1F [Example 47, 3-(6-fluoro-5-methylpyridin-3-yl)-2-(4-(4-methyl-4H-1,2,4-triazol-3-yl)piperidin-1-yl)benzonitrile] | < 100 nM | < 100 nM | < 100 nM |
| Cc1cc(-c2ccc(-c3cnn(C)c3)c(C#N)c2N2CCC(c3nncn3C)CC2)cnn1 [Example 48, 6-(1-methyl-1H-pyrazol-4-yl)-2-(4-(4-methyl-4H-1,2,4-triazol-3-yl)piperidin-1-yl)-3-(6-methylpyridazin-4-yl)benzonitrile] | < 100 nM | < 100 nM | < 100 nM |
| CN(C)CCNc1ccc(-c2ccc(F)nc2)c(N2CCC(c3nncn3C)CC2)c1C#N [Example 51, 6-((2-(dimethylamino)ethyl)amino)-3-(6-fluoropyridin-3-yl)-2-(4-(4-methyl-4H-1,2,4-triazol-3-yl)piperidin-1-yl)benzonitrile] | < 100 nM | < 100 nM | 100 to 1000 nM |
| CN(C)CCn1cc(-c2ccc(-c3ccc(F)nc3)c(N3CCC(c4nncn4C)CC3)c2C#N)cn1 [Example 60, 6-(1-(2-(dimethylamino)ethyl)-1H-pyrazol-4-yl)-3-(6-fluoropyridin-3-yl)-2-(4-(4-methyl-4H-1,2,4-triazol-3-yl)piperidin-1-yl)benzonitrile] | < 100 nM | < 100 nM | < 100 nM |
| Cc1cc(-c2ccc(OCCN(C)C)c(C#N)c2N2CCC(c3nncn3C)CC2)cnn1 [Example 62, 6-(2-(dimethylamino)ethoxy)-2-(4-(4-methyl-4H-1,2,4-triazol-3-yl)piperidin-1-yl)-3-(6-methylpyridazin-4-yl)benzonitrile] | < 100 nM | 100 to 1000 nM | > 10000 nM |
| Cn1cnnc1C1CCN(c2c(-c3ccc(F)nc3)ccc(-c3cnn(C4CC4)c3)c2C#N)CC1 [Example 63, 6-(1-cyclopropyl-1H-pyrazol-4-yl)-3-(6-fluoropyridin-3-yl)-2-(4-(4-methyl-4H-1,2,4-triazol-3-yl)piperidin-1-yl)benzonitrile] | < 100 nM | < 100 nM | < 100 nM |
| Cn1cnnc1C1CCN(c2c(-c3ccc(F)nc3)ccc(-c3cnn4c3OCCC4)c2C#N)CC1 [Example 64, 6-(6,7-dihydro-5H-pyrazolo[5,1-b][1,3]oxazin-3-yl)-3-(6-fluoropyridin-3-yl)-2-(4-(4-methyl-4H-1,2,4-triazol-3-yl)piperidin-1-yl)benzonitrile] | < 100 nM | < 100 nM | < 100 nM |
| Cc1cc(-c2ccc(-c3cc[nH]n3)c(C#N)c2N2CCC(c3nncn3C)CC2)cnn1 [Example 65, 2-(4-(4-methyl-4H-1,2,4-triazol-3-yl)piperidin-1-yl)-3-(6-methylpyridazin-4-yl)-6-(1H-pyrazol-3-yl)benzonitrile] | < 100 nM | < 100 nM | > 10000 nM |
| Cc1cc(C#N)c(N2CCC(c3nncn3C)CC2)c(-c2ccc(F)nc2)c1 [Example 66, 3-(6-fluoropyridin-3-yl)-5-methyl-2-(4-(4-methyl-4H-1,2,4-triazol-3-yl)piperidin-1-yl)benzonitrile] | < 100 nM | < 100 nM | < 100 nM |
| Cc1ccc(-c2ccc(F)nc2)c(N2CCC(c3nncn3C)CC2)c1C#N [Example 67, 3-(6-fluoropyridin-3-yl)-6-methyl-2-(4-(4-methyl-4H-1,2,4-triazol-3-yl)piperidin-1-yl)benzonitrile] | < 100 nM | < 100 nM | < 100 nM |
| Cn1cnnc1C1CCN(c2c(-c3ccc(F)nc3)ccc(C3CC3)c2C#N)CC1 [Example 68, 6-cyclopropyl-3-(6-fluoropyridin-3-yl)-2-(4-(4-methyl-4H-1,2,4-triazol-3-yl)piperidin-1-yl)benzonitrile] | < 100 nM | < 100 nM | < 100 nM |
| Cn1cnnc1C1CCN(c2c(C#N)cc(Cl)cc2-c2ccc(F)nc2)CC1 [Example 69, 5-chloro-3-(6-fluoropyridin-3-yl)-2-(4-(4-methyl-4H-1,2,4-triazol-3-yl)piperidin-1-yl)benzonitrile] | < 100 nM | < 100 nM | < 100 nM |
| Cn1cnnc1C1CCN(c2c(C#N)cc(C(F)(F)F)cc2-c2ccc(F)nc2)CC1 [Example 70, 3-(6-fluoropyridin-3-yl)-2-(4-(4-methyl-4H-1,2,4-triazol-3-yl)piperidin-1-yl)-5-(trifluoromethyl)benzonitrile] | < 100 nM | < 100 nM | < 100 nM |
| Cn1cnnc1C1CCN(c2c(-c3ccc(F)nc3)ccc(F)c2C#N)CC1 [Example 71, 6-fluoro-3-(6-fluoropyridin-3-yl)-2-(4-(4-methyl-4H-1,2,4-triazol-3-yl)piperidin-1-yl)benzonitrile] | < 100 nM | < 100 nM | < 100 nM |
| Cn1cnnc1C1CCN(c2c(-c3ccc(F)nc3)ccc(-c3cn[nH]c3)c2C#N)CC1 [Example 73, 3-(6-fluoropyridin-3-yl)-2-(4-(4-methyl-4H-1,2,4-triazol-3-yl)piperidin-1-yl)-6-(1H-pyrazol-4-yl)benzonitrile] | < 100 nM | < 100 nM | < 100 nM |
